Tests used:
[1] = system: clinical isolates T. rubrum DM 2006 1661, T. rubrum DM 2006 1358, T. mentagrophytes DM 2006 1503, T. mentagrophytes DM 2006 1498; assay: Ex vivo human nail fragment model, treatment, clinical isolates of Trichophyton spp.; format: cell-based; conditions: Experiment 3
Description: (§1) Trichophyton rubrum strain NCPF0118 was obtained from the National Collection of Pathogenic Fungi, Bristol, UK. Clinical isolates of T. rubrum DM2006 1661, T. rubrum DM2006 1358, T. mentagrophytes DM2006 1503, T. mentagrophytes DM2006 1498 were isolated from patients suffering a range of tinea infections and were purchased from Professor Michel Monod (Service de Dermatologie, Université de Lausanne, Switzerland). Clinical isolates of Candida samples were also obtained from patients suffering from Candidal infection.
The experiment was performed as described in Experiment 1 with modifications relating to the vehicle, concentrations and fungal strains used. […]
At the end of the treatment period, the nail fragments were placed in sterile 2 ml microcentrifuge tubes containing 450 μl of a suspension broth consisting of Sabouraud's Liquid Medium, pH 5.6, containing approximately 100 mg of sterile zirconia beads (0.5 mm diameter). […] Colonies were counted on dishes that contained between 20 and 200 colonies in total, and the total number of cfu present in each sample was calculated. […] The counts were corrected for the surface area of the nails studied to give cfu/cm^2, transformed to log10 and means and standard errors of the mean were calculated using GraphPad Prism 4 (GraphPad, San Diego, Calif.). […]

[2] = system: Candida; assay: Ex vivo human nail fragment model, treatment of Candida infection; format: cell-based; conditions: Experiments 6 and 7; 10% (w/v); 14 d or 28 d, daily
Description: as §1
The procedure was carried out as described for Example 1 above with modifications to the vehicle, and fungal strains used. Each nail was inoculated with 10 μl of a spore suspension of Candida. Following inoculation the nails were treated with 10% (w/v) Novexatin® (NP213) in a vehicle solution of 50% (w/v) PEG 8000 plus 20% (w/v) urea; 10% (w/v) NP339 in a vehicle solution of 50% (w/v) PEG 8000 plus 20% (w/v) urea; 10% (w/v) NP339 in a vehicle solution of water; a control solution of 50% (w/v) PEG 8000 plus 20% (w/v) urea; a control solution of water; a solution of 16 μg/ml Itraconazole® and 1.6% (w/v) DMSO in a vehicle solution of water and a control solution of 1.6% (w/v) DMSO. As for Experiment 1 above, nail fragments were treated daily for up to 28 days. […]
At the end of the treatment period, the nail fragments were placed in sterile 2 ml microcentrifuge tubes containing 450 μl of a suspension broth consisting of Sabouraud's Liquid Medium, pH 5.6, containing approximately 100 mg of sterile zirconia beads (0.5 mm diameter). […] Colonies were counted on dishes that contained between 20 and 200 colonies in total, and the total number of cfu present in each sample was calculated. […] The counts were corrected for the surface area of the nails studied to give cfu/cm^2, transformed to log10 and means and standard errors of the mean were calculated using GraphPad Prism 4 (GraphPad, San Diego, Calif.). […] When very low numbers of colonies were detected, as in Experiment 3, the calculated cfu values are shown in order to indicate trends.

[3] = system: T. interdigitale NCPF0335; assay: Ex vivo human nail fragment model, prevention of infection; format: cell-based, Trichophyton interdigitale; conditions: Experiment 8
Description: Six nail fragments were obtained. Three were assigned to each of two different infection prevention protocols, involving daily application of 2 different vehicle solutions, each containing a control and 3 different concentrations of Novexatin® (NP213). These vehicle solutions were: 50% (w/v) PEG 8000, and 50% (w/v) PEG 8000 plus 20% (w/v) urea. The concentrations of Novexatin® (NP213) studied were 0% (control), 1% (Novexatin® 1), 5% (Novexatin® 2) and 10% (Novexatin® 3) (w/v). The solutions were applied at a volume of 10 μl/cm^2, corrected for the surface area of the different nail fragments as described above. The applied solution was spread over the dorsal side of the nail, to mimic the intended clinical treatment and the ventral side of the nail rested on the agar surface. Each time the nails were contacted with the vehicle solutions, they were transferred to a new sterile Petri dish containing PBS agar to minimise any build-up of fungal growth on the agar. Nail fragments were contacted with the vehicle solutions daily for 7 days. Following such contact, each nail fragment was contacted with 10 μl of a spore suspension of T. interdigitale NCPF0335 which was prepared as described above. The spore suspension was applied to the ventral side of the nail (i.e. the side next to the skin in situ). […]

[4] = system: T. rubrum NCPF0118; assay: In vitro MIC100 testing; format: cell-based, Trichophyton rubrum; conditions: versus T. rubrum NCPF0118; revealed in separate tests
[5] = system: four clinical isolates of Trichophyton spp.; assay: In vitro MIC testing of clinical isolates; format: cell-based
Description: However, this difference in activity is not reflected in human nail tissue, which should be considered a more appropriate model for activity testing for antimicrobials of this type.

[6] = system: Trichophyton rubrum strain NCPF0118; assay: Ex vivo human nail fragment model, treatment of established infection (cfu recovered); format: cell-based

7 to 200-mer (SEQ ID NO: 3) polyarginine [Novexatin® (NP213)]
effect on survival of clinical isolates (dose dependence) ([1]; 0%, 5%, 10% (w/v) in 50% PEG 8000 + 20% urea): dose-dependent | effectiveness of treatment compared with T. rubrum NCPF0118 ([1]; four clinical isolates): as effective as that observed when T. rubrum NCPF0118 was used | recoverable fungal growth after treatment [2]: no recoverable fungal growth | fungal growth on pre-treated nail fragments ([3]; pre-treated daily for 7 days (1%, 5%, 10% w/v), after 24 hours from spore contact): no fungal growth | fungal growth on pre-treated nail fragments ([3]; up to 14 days after contact with spore suspension): No fungal growth was observed | concentration equal to 100× the MIC100 [4]: ~10 % (w/v) | susceptibility of clinical isolates compared to T. rubrum NCPF0118 [5]: less susceptible | killing of T. rubrum NCPF0118 ([6]; 10% (w/v) in 50% (w/v) PEG 8000 vehicle, 28 d of treatment): > 99.9% | fungal colonies isolated from nail fragments ([6]; Experiment 1, 10% (w/v), both presence and absence of urea, daily 28 days): no colonies were isolated | effect of treatment on fungal survival (dose dependence) ([6]; Experiment 2, 0%, 2.5%, 5%, 10% (w/v) in 50% PEG 8000 + 20% urea): dose-dependent effect | reduction in fungal survival ([6]; Experiment 2, 2.5% and 5.0% (w/v), daily): significant reductions in fungal survival | reduction in fungal survival ([6]; Experiment 2, 2.5%, 5.0% and 10.0% (w/v), alternate days): the reduction in fungal survival was significant | reduction of fungal survival relative to Experiment 1 ([6]; Experiment 2, 5% (w/v), difference not statistically significant): less effective in reducing fungal survival than observed in Experiment 1 | fungal colonies recovered ([6]; Experiment 2, 10% (w/v) applied daily, PEG 8000 + 20% urea): no fungal colonies were recovered | decrease in survival of the fungus compared to controls ([6]; Experiment 2, 10% (w/v) applied on alternate days): ~3 log10 | fungal colonies recovered ([6]; Experiment 2, 10% (w/v) applied on alternate days, PEG 8000 + 20% urea): small numbers of colonies were recovered | visual examination of nail fragments ([6]; Experiment 2, after 28 d treatment, versus vehicle alone (FIG. 7)): no visual evidence of fungal infection | effect of simulated washing on antifungal efficacy ([6]; Experiment 4, nail surface wiped with sterile water before application): did not affect the antifungal efficacy | fungal colonies recovered ([6]; Experiment 4, washed or unwashed nail fragments, 28 days): No fungal colonies were recovered

— US20130109049A1, “Method of Establishing a Fungal Nail Infection” (NOVABIOTICS LIMITED, priority 2009, published 2013)
